Data on three compounds can be found in US5084453A, “1-carboxy-1-vinyloxyimino aminothiazole cephalosporin derivatives” (priority 1988, dated 1992).

Each structure is given as a SMILES string. Values after ≈ are worked out from the molar mass of the structure shown. Where two headings read alike, the source gives them in different places.

The term MIC denotes the least concentration at which growth counts as inhibited.

Holding throughout (experiment): in vitro antibacterial activity, agar plate dilution method
Common to all, as to type: cell-based

One test has as its system E. cloacae 963. The protocol: (§1) Now, the in vitro antibacterial activities of the compounds of the present invention against various microorganisms, were measured by the following agar plate dilution method.
(§2) One platinum loopfull of each test microorganism incubated overnight in Mueller Hinton broth, was inoculated to Mueller Hinton agar (MH agaer). Such culture media containing various antibiotics in various concentrations were prepared. After incubation at 37° C. for 16 hours, the minimum inhibitory concentrations (MIC μg/ml) were measured.

The test system of another test is E. coli GN5482*. The protocol:
as §1, §2

Another test deals with E. coli CSH(RE45)*. The conditions noted are these: 10^6 CFU/ml, β-Lactamase-producing strain, 37° C., 16 hours. The protocol: as §1, §2
Another test relates to S. marcescens IAM 1184. The protocol:
as §1, §2

The subject of the next test is Ps. aeruginosa IFO3445. The protocol:
as §1, §2

The test system of another test is A. calcoaceticus No. 4. The protocol: as §1, §2
For the next test, the system named is P. vulgaris No. 33*. The protocol: as §1, §2
A further test relates to K. pneumoniae No. 42*. The protocol: as §1, §2
Another test deals with Ps. cepacia 23. The protocol: as §1, §2
The next test deals with K. pneumoniae PC1-602. The protocol: as §1, §2
Another test has as its system E. cloacae Nek 39*. The protocol: as §1, §2
A further test concerns E. coli NIHJ JC2. As to conditions: 10^6 CFU/ml, Mueller Hinton agar, 37° C., 16 hours. The protocol:
as §1, §2

A further test concerns Ps. aeruginosa AK 109. The protocol:
as §1, §2

Another test deals with M. morganii GN5407*. The protocol:
as §1, §2

The next test relates to P. vulgaris HX-19. The protocol: as §1, §2
The test system of another test is Ps. aeruginosa AKR17. As to conditions: 10^6 CFU/ml, Mueller Hinton agar, 37° C., 16 hours. The protocol:
as §1, §2

A further test has as its system S. aureus 209P NIHJ-JC1. The protocol: as §1, §2
In a further test the test system is S. marcescens No. 16-2*. The protocol: as §1, §2
Another test has as its system K. oxytoca GN10650*. The protocol:
as §1, §2

For a further test, the system named is E. coli CSH2(RK1)*. As to conditions: Escherichia coli, 16 h. The protocol:
as §1, §2

Setting [1] is: 10^6 CFU/ml, Mueller Hinton agar, 37° C., 16 hours.
Where [2] appears, read: 10^6 CFU/ml, β-Lactamase-producing strain, 37° C., 16 hours.
[3] abbreviates: Enterobacter cloacae, 963, 16 h.
Where [4] appears, read: Escherichia coli, read-out: MIC.
Where [5] appears, read: Serratia marcescens, IAM1184, 16 h.
The mark [6] stands for this setting: Escherichia coli, NIHJJC2, read-out: MIC.
Setting [7] is: Morganella morganii, GN5407, 16 h.
[8] abbreviates: Pseudomonas aeruginosa, AKR17, read-out: MIC.
Where [9] appears, read: Klebsiella oxytoca, GN10650, 16 h.

On to `C=C(ON=C(C(=O)N[C@@H]1C(=O)N2C(C(=O)[O-])=C(C[n+]3ccccc3)CS[C@H]12)c1csc(N)n1)C(=O)O` (single isomer, unassigned) [Example 1, 7β-[2-(2-aminothiazol-4-yl)-2-(1-carboxy-1-vinyloxyimino)acetamido]-3-(1-pyridinio)methyl-3-cephem-4-carboxylate (syn-isomer)], for which the MIC was 0.025 µg/mL (≈ 0.0471 µM) against E. cloacae 963 (setting [1]); 0.2 µg/mL (≈ 0.377 µM) against E. coli GN5482* (setting [2]); 0.025 µg/mL (≈ 0.0471 µM) against E. coli CSH(RE45)*; less than 6 ng/mL in the test with S. marcescens IAM 1184 (setting [1]); 0.78 µg/mL (≈ 1.47 µM) against Ps. aeruginosa IFO3445 (setting [1]); 12.5 µg/mL (≈ 23.6 µM) in the test on A. calcoaceticus No. 4 (setting [1]). Moreover, the MIC is 0.0125 µg/mL (≈ 0.0236 µM) in the test on P. vulgaris No. 33* (setting [2]); 0.1 µg/mL (≈ 0.188 µM) in the test on K. pneumoniae No. 42* (setting [2]); 3.12 µg/mL (≈ 5.88 µM) in the test on Ps. cepacia 23 (setting [1]); less than 0.006 µg/mL against K. pneumoniae PC1-602 (setting [1]); 0.39 µg/mL (≈ 0.735 µM) against E. cloacae Nek 39* (setting [2]); 0.025 µg/mL (≈ 0.0471 µM) against E. coli NIHJ JC2. For the same compound, the minimal inhibitory concentration (MIC) in the test with Ps. aeruginosa AK 109 (setting [1]) is 1.56 µg/mL (≈ 2.94 µM); in the test on M. morganii GN5407* (setting [2]), 0.0125 µg/mL (≈ 0.0236 µM); with P. vulgaris HX-19 (setting [1]) it was 0.0125 µg/mL (≈ 0.0236 µM); in the test on Ps. aeruginosa AKR17, more than 100 µg/mL; in the test with S. aureus 209P NIHJ-JC1 (setting [1]), 3.12 µg/mL (≈ 5.88 µM); in the test on S. marcescens No. 16-2* (setting [2]) it was 0.78 µg/mL (≈ 1.47 µM). Moreover, in the test with K. oxytoca GN10650* (setting [2]), the MIC was determined as 0.1 µg/mL (≈ 0.188 µM).

Turning to `CO/N=C(\C(=O)N[C@@H]1C(=O)N2C(C(=O)O)=C(COC(C)=O)CS[C@H]12)c1csc(N)n1` [Cefotaxime, reference compound], the MIC in the test on E. cloacae 963 (setting [3]) was 0.05 µg/mL (≈ 0.11 µM); in the test with E. coli GN5482* (Escherichia coli, GN5482, 16 h) it was 0.39 µg/mL (≈ 0.856 µM); in the test on E. coli CSH(RE45)* (setting [4]), 0.1 µg/mL (≈ 0.22 µM); against S. marcescens IAM 1184 (setting [5]), 12.5 ng/mL (≈ 0.0274 µM); in the test on Ps. aeruginosa IFO3445 (Pseudomonas aeruginosa, IFO3445, 10^6 CFU/ml, Mueller Hinton agar, 37° C., 16 hours, read-out: MIC), 25 µg/mL (≈ 54.9 µM); in the test with A. calcoaceticus No. 4 (Acinetobacter calcoaceticus, NO.4, 10^6 CFU/ml, Mueller Hinton agar, 37° C., 16 hours, read-out: MIC) it was 25 µg/mL (≈ 54.9 µM). Besides, the MIC in the test with P. vulgaris No. 33* (Proteus vulgaris, 16 h) was 0.025 µg/mL (≈ 0.0549 µM); in the test on K. pneumoniae No. 42* (Klebsiella pneumoniae, 16 h), 0.05 µg/mL (≈ 0.11 µM); against E. coli CSH2(RK1)* it was 0.0125 µg/mL (≈ 0.0274 µM); in the test on Ps. cepacia 23 (Burkholderia cepacia, 23, 16 h), 6.25 µg/mL (≈ 13.7 µM); with K. pneumoniae PC1-602 (Klebsiella pneumoniae, PC1602, 10^6 CFU/ml, Mueller Hinton agar, 37° C., 16 hours, read-out: MIC) it was less than 0.006 µg/mL; against E. cloacae Nek 39* (Enterobacter cloacae, 16 h) it was 1.56 µg/mL (≈ 3.43 µM). For the same compound, the minimum inhibitory concentration (MIC) in the test on E. coli NIHJ JC2 (setting [6]) is 0.05 µg/mL (≈ 0.11 µM); in the test on Ps. aeruginosa AK 109 (Pseudomonas aeruginosa, AK109, 10^6 CFU/ml, Mueller Hinton agar, 37° C., 16 hours, read-out: MIC), 12.5 µg/mL (≈ 27.4 µM); against M. morganii GN5407* (setting [7]), 0.05 µg/mL (≈ 0.11 µM); in the test with P. vulgaris HX-19 (Proteus vulgaris, HX19, 10^6 CFU/ml, Mueller Hinton agar, 37° C., 16 hours, read-out: MIC) it was less than 0.006 µg/mL; in the test with Ps. aeruginosa AKR17 (setting [8]) it was more than 100 µg/mL; with S. aureus 209P NIHJ-JC1 (Staphylococcus aureus, 16 h), 1.56 µg/mL (≈ 3.43 µM). In addition, the MIC against S. marcescens No. 16-2* (Serratia marcescens, 16 h) came out at 6.25 µg/mL (≈ 13.7 µM); with K. oxytoca GN10650* (setting [9]) it was 0.39 µg/mL (≈ 0.856 µM).

`CC(C)(O/N=C(\C(=O)N[C@@H]1C(=O)N2C(C(=O)[O-])=C(C[n+]3ccccc3)CS[C@H]12)c1csc(N)n1)C(=O)O` [Ceftazidime, reference compound]: the MIC against E. cloacae 963 (setting [3]) is 0.1 µg/mL (≈ 0.183 µM); in the test with E. coli GN5482* (Escherichia coli, GN5482, 16 h), 1.56 µg/mL (≈ 2.85 µM); in the test on E. coli CSH(RE45)* (setting [4]) it was 0.2 µg/mL (≈ 0.366 µM); in the test with S. marcescens IAM 1184 (setting [5]), less than 6 ng/mL; against Ps. aeruginosa IFO3445 (Pseudomonas aeruginosa, IFO3445, 16 h), 1.56 µg/mL (≈ 2.85 µM); with A. calcoaceticus No. 4 (Acinetobacter calcoaceticus, NO.4, 16 h), 6.25 µg/mL (≈ 11.4 µM). Besides, the minimum inhibitory concentration (MIC) in the test on P. vulgaris No. 33* (Proteus vulgaris, 16 h) is 0.5 µg/mL (≈ 0.915 µM); with K. pneumoniae No. 42* (Klebsiella pneumoniae, 16 h), 0.39 µg/mL (≈ 0.714 µM); against E. coli CSH2(RK1)*, 0.1 µg/mL (≈ 0.183 µM); against Ps. cepacia 23 (Burkholderia cepacia, 23, 16 h), 0.78 µg/mL (≈ 1.43 µM); with K. pneumoniae PC1-602 (Klebsiella pneumoniae, PC1602, 16 h), 0.25 µg/mL (≈ 0.457 µM); in the test on E. cloacae Nek 39* (Enterobacter cloacae, 16 h) it was 1.56 µg/mL (≈ 2.85 µM). Moreover, the MIC in the test with E. coli NIHJ JC2 (setting [6]) is 0.1 µg/mL (≈ 0.183 µM); against Ps. aeruginosa AK 109 (Pseudomonas aeruginosa, AK109, 16 h), 0.78 µg/mL (≈ 1.43 µM); against M. morganii GN5407* (setting [7]) it was 0.1 µg/mL (≈ 0.183 µM); against P. vulgaris HX-19 (Proteus vulgaris, HX19, 16 h), 0.025 µg/mL (≈ 0.0457 µM); in the test with Ps. aeruginosa AKR17 (setting [8]), more than 100 µg/mL; in the test with S. aureus 209P NIHJ-JC1 (Staphylococcus aureus, 16 h), 6.25 µg/mL (≈ 11.4 µM). Further, the MIC against S. marcescens No. 16-2* (Serratia marcescens, 16 h) is 1.56 µg/mL (≈ 2.85 µM); against K. oxytoca GN10650* (setting [9]), 0.1 µg/mL (≈ 0.183 µM).
